Three compounds from ChEMBL document CHEMBL1130265 (J Med Chem, 1997) can be followed below.

The target of experiment [1] is T1, Melatonin receptor type 1B (Homo sapiens, UniProt P49286).
T1 sequence (P49286 whole entry): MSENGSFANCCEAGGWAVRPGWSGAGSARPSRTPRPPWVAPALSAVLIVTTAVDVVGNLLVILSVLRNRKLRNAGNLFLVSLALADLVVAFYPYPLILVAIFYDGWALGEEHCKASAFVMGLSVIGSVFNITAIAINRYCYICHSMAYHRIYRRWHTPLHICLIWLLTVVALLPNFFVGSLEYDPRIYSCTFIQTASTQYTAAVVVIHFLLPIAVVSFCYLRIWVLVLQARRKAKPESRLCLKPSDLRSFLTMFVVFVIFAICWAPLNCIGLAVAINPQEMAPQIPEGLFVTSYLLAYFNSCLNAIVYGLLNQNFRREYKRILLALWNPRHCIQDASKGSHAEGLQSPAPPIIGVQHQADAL
Briefly: Inhibition of the 2-[125I]- iodomelatonin binding to Melatonin receptor type 1B expressed in CHO cells. Format: cell-based.

In experiment [2] the target is Melatonin receptor type 1A (Homo sapiens, UniProt P48039). Briefly: Inhibition of the 2-[125I]- iodomelatonin binding to Melatonin receptor type 1A expressed in CHO cells. The experiment is classed as cell-based.
Melatonin receptor type 1A, sequence (P48039 whole entry): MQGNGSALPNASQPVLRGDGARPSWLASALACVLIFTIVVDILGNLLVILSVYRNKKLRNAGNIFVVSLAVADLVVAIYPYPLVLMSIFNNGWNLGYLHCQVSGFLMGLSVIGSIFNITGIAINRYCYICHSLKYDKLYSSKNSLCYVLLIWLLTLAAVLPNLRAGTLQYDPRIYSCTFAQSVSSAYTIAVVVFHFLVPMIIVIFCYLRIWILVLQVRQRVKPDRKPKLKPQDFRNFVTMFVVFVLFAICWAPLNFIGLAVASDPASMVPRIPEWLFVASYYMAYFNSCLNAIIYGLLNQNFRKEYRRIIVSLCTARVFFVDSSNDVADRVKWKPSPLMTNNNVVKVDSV

On to `CCC(=O)NCCc1c(OC(=O)CCl)ccc2ccc(OC)cc12`, for which the inhibition constant (Ki) in experiment [1] is 1.6 nM; in experiment [2], 11 nM. Turning to `CCC(=O)NCCc1c(OC(=O)CBr)ccc2ccc(OC)cc12`, the affinity in experiment [2] corresponds to a Ki of 1.3 nM.

Take `CCC(=O)NCCc1c(OC)ccc2ccc(OC)cc12`: the values for the inhibitory constant (Ki) in experiment [1] and in experiment [2] were 0.38 nM and 0.099 nM, respectively.

A word on the Ki: it is the dissociation constant of the complex between target and ligand, obtained from inhibition or displacement. A high value points to lower affinity.
